Drawing on ChEMBL document CHEMBL1150698, “Placidenes C-F, novel alpha-pyrone propionates from the Mediterranean sacoglossan Placida dendritica” (J Nat Prod, 2003), this text covers Stability and Activity for five compounds.

Structures are written as SMILES.

Data set [1] in a line: Stability at pH 1 to 5. It counts as physicochemical. The following applies: buffer.
The test system of data set [2] is Gambusia affinis. Put plainly: Toxicity in Gambusia affinis. In kind it is organism-based. Conditions: in vivo.

With `CC/C=C(C)\C=C(/C)c1oc(OC)c(C)c(=O)c1C` [PLACIDENE A], the Stability result in data set [1] is “Stable”. Further, the Activity result in data set [2] was “Non-toxic”. The matching figures for `CCC(C)/C=C/c1oc(=O)cc(OC)c1C` (configuration not stated) [PLACIDENE C]: “Stable” and “Non-toxic”. Turning to `CCCC(C)/C=C/c1oc(=O)cc(OC)c1C` (configuration not stated) [PLACIDENE D], the Activity entry in data set [2] is listed as “Non-toxic”. The same measure, in the same setting: the entry for `CCCC(C)c1oc(=O)cc(OC)c1C` (configuration not stated) [PLACIDENE E] is “Non-toxic”; for `C/C=C(C)\C=C(/C)c1oc(=O)c(C)c(OC)c1C` [PLACIDENE F] it is “Non-toxic”.
